Biological target: T1, succinate receptor 1 (SUCNR1; GPR91) (Mus musculus, UniProt Q99MT6)
T1 construct: native receptor in tracheal TRPM5+ brush cells (ex vivo whole mount)
T1 sequence (Q99MT6 1-317): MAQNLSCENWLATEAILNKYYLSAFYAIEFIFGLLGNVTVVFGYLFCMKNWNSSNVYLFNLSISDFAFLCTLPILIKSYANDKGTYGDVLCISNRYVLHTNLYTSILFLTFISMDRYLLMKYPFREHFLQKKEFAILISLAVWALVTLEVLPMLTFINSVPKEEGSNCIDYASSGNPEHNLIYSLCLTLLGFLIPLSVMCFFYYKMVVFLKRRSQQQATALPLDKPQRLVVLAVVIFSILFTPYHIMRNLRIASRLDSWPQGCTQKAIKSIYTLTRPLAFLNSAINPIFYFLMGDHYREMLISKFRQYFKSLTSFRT
Test: Ca2+ imaging (GCaMP6f) concentration-response in brush cells; Ca2+ wave lost in Sucnr1-/- mice

- EC50: 335 ± 5 µM
SMILES: O=C(O)CCC(=O)O [succinate]

— publication PMC10396310, “A succinate/SUCNR1-brush cell defense program in the tracheal epithelium” (Science Advances, 2023)
